Measurements as given in article PMC6364133, “Selectivity of Dietary Phenolics for Inhibition of Human Monoamine Oxidases A and B” (BioMed Research International, 2019).
Entries after “also recorded” stand apart in the source; their conditions may differ. Where two headings read alike, the source gives them in different places.

Legend:
[1] = molecular target: T1, MAO-B (Homo sapiens, UniProt P27338); assay: Inhibition mechanism studies (competition, time dependence) with MAO-B; format: biochemical
T1 construct: purchased BD Biosciences (San Jose, CA) or Corning Discovery Labware (Woburn, MA)
T1 sequence (P27338 1-520): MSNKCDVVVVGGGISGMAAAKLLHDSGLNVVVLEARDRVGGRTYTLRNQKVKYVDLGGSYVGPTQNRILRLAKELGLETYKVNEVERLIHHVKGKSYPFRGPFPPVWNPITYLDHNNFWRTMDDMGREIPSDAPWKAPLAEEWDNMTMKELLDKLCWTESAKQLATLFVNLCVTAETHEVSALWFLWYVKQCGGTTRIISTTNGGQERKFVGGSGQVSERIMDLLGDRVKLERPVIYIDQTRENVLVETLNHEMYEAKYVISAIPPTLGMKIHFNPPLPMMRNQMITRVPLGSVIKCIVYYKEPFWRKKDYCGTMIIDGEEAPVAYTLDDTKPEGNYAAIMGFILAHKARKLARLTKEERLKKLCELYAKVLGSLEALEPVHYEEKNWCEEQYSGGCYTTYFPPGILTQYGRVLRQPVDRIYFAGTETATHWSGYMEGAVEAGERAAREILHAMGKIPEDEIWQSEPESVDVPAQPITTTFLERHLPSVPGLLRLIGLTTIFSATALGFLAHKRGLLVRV

[2] = molecular target: T2, MAO-A (Homo sapiens, UniProt P21397); assay: MAO-A inhibition, kynuramine to 4-hydroxyquinoline, HPLC-fluorescence; format: biochemical
T2 construct: purchased BD Biosciences (San Jose, CA) or Corning Discovery Labware (Woburn, MA)
T2 sequence (P21397 1-527): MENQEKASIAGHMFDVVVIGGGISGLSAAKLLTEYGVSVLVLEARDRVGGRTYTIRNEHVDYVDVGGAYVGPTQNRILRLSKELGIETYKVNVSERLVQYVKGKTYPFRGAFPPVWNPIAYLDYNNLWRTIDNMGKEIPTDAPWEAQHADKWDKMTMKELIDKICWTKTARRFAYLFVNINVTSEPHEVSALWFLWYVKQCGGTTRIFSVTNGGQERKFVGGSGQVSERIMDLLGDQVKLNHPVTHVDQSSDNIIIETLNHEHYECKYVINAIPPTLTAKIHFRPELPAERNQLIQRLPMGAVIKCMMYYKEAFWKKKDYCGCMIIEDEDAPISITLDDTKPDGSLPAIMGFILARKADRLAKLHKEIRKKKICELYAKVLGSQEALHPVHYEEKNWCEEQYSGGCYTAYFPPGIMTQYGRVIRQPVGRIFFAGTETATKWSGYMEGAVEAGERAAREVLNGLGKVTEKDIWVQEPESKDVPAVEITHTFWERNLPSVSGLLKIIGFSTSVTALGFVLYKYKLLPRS

[3] = molecular target: T1, MAO-B; assay: MAO-B inhibition, kynuramine to 4-hydroxyquinoline, HPLC-fluorescence; format: biochemical
[4] = human, 125mg twice daily orally for 6-8 weeks; cited from earlier work
[5] = rats, 56 or 168 mg/kg/day by gavage for 14 continuous days; cited from earlier work
[6] = test system: MAO-A; details: cited from earlier work
[7] = cited from earlier work
[8] = test system: MAO-B; details: up to 10μM; cited from earlier work
[9] = test system: MAO-A in rat brain; details: cited from earlier work
[10] = molecular target: T1, MAO-B; details: competitive; cited from earlier work
[11] = molecular target: T2, MAO-A; details: competitive; cited from earlier work
[12] = highest expected luminal concentration: curcumin 140, guaiacol 435, isoeugenol 110, pterostilbene 270, resveratrol 94, zingerone 51 µM, p < 0.05 vs control
[13] = kynuramine 10 µM, MAO-A 0.01 mg/mL, 15 min

With `COc1cc(/C=C/c2ccc(O)cc2)cc(OC)c1` [pterostilbene] the “mechanism of MAO-B inhibition” value [1] was “competitive time-independent; also recorded: competitive, time-independent”, the “time profile of MAO-B activity on preincubation” value ([1]; 0.7 μM, preincubation 0-60 min) was “not significantly different from the control” and the “Vmax of kynuramine with MAO-B in presence of inhibitor” value ([1]; pterostilbene 0.45 μM, kynuramine 2-450 μM) was 3.28 ± 0.19 nmol/min/mg protein. The “inhibition of MAO-A activity in screening” value [2, 12] was “significantly inhibited”, the IC50 [2, 13] was 13.4 ± 1.5 µM and the “MAO-A Hill coefficient” value [2, 13] was 1.7 ± 0.3. For the same compound, the “Selectivity Index” value ([2]; ratio of MAO-B IC50/MAO-A IC50) was 0.0103, the “inhibition of MAO-B activity in screening” value [3, 12] was “significantly inhibited” and the IC50 ([3]; kynuramine 10 µM, MAO-B 0.01 mg/mL, 15 min) was 0.138 ± 0.013 µM. For the same compound, the plasma low-density lipoproteins [4] was “slightly raised”, the “systolic and diastolic blood pressure” value [4] was “reduces” and the oral bioavailability [5] was 80%.

In the case of `Oc1ccc(/C=C/c2cc(O)cc(O)c2)cc1` [resveratrol], the MAO-A inhibition [6] is given as “inhibitor of MAO-A”, the Ki ([3]; from IC50 assuming competitive inhibition) is given as 10.2 µM and the plasma protein binding [7] is given as 91%. The MAO-B inhibition [8] was “did not significantly inhibit”, the IC50 [9] was 2 µM and the Ki [9] was 2.5 µM.

In the case of `C=CCc1ccc(O)c(OC)c1` [eugenol], the Ki [10] is listed as 211 µM and the Ki [11] is listed as 26 µM.
